In the assay the target is T1, SARM1 (50-724) (Homo sapiens, UniProt Q6SZW1).
T1 construct: Purified SARM1 (50-724) with a final concentration of 2 nM
T1 sequence (Q6SZW1 50-724): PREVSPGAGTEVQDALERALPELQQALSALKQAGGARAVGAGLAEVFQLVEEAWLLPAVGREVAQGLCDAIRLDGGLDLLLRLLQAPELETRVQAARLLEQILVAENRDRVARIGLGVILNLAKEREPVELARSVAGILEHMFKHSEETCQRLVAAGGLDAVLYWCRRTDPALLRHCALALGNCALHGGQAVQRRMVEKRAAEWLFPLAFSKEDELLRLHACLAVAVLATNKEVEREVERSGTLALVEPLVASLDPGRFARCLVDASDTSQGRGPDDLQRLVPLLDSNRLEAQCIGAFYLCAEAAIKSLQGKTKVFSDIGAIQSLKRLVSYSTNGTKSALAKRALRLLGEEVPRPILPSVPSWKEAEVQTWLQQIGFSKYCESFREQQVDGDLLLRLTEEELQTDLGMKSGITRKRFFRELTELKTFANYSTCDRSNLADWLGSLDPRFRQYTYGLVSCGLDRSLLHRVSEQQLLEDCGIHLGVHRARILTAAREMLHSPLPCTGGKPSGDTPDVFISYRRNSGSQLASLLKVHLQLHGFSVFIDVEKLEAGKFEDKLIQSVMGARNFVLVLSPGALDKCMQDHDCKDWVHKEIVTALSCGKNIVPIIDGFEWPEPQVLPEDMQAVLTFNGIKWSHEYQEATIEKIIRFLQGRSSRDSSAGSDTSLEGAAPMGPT
In words: SARM1 (50-724) enzymatic assay (NMN-activated NAD+ hydrolysis, LC-MS/MS readout). The assay is classed as biochemical. Conditions: purified SARM1 (50-724) 2 nM, 200 μM NMN activator, 100 μM NAD+ substrate, 1 h at room temperature, read-out: IC50 (SARM1 inhibitory activity). The gist of the method: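 Purified human SARM1 (50-724), 2 nM final in DPBS, pre-incubated 15 min at RT with compound (1% DMSO), then started with 200 μM NMN activator and 100 μM NAD+. After 1 h at RT, quenched with 70% acetonitrile; analysed by LC-MS/MS.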
Take `Cc1cc(-c2ccc3[nH]c(C(=O)N(CCO)c4cccc(Cl)c4Cl)nc3c2)sn1` [Compound 144]: the IC50 (in general, the concentration that inhibits the measured activity by half) lay within 101 to 500 nM. Take `Cc1c(Cl)ccnc1N(CCO)C(=O)c1nc2cc(C(F)(F)F)ccc2[nH]1` [Compound 145, N-(4-chloro-3-methylpyridin-2-yl)-N-(2-hydroxyethyl)-5-(trifluoromethyl)-1H-benzo[d]imidazole-2-carboxamide]: the IC50 lay within 101 to 500 nM. The result for `CC(=O)NCCN(C(=O)c1nc2cc(C(F)(F)F)ccc2[nH]1)c1cccc(Cl)c1Cl` [Compound 146, N-(2-acctamidoethyl)-N-(2,3-dichlorophenyl)-5-(trifluoromethyl)-1H-benzo[d]imidazole-2-carboxamide] reads at most 100 nM; that for `CS(=O)(=O)NCCN(C(=O)c1nc2cc(C(F)(F)F)ccc2[nH]1)c1cccc(Cl)c1Cl` [Compound 147, N-(2,3-dichlorophenyl)-N-(2-(methylsulfonamido)ethyl)-5-(trifluoromethyl)-1H-benzo[d]imidazole-2-carboxamide], at most 100 nM.

On to `Cc1c(Cl)cncc1N(CCO)C(=O)c1nc2cc(C(F)(F)F)ccc2[nH]1` [Compound 148, N-(5-chloro-4-methylpyridin-3-yl)-N-(2-hydroxyethyl)-5-(trifluoromethyl)-1H-benzo[d]imidazole-2-carboxamide], for which the half-maximal inhibitory concentration (IC50) is at most 100 nM. Turning to `O=C(c1nc2cc(C(F)(F)F)ccc2[nH]1)N(CCN1CCC1)c1cccc(Cl)c1Cl` [Compound 149, N-(2-(azetidin-1-yl)ethyl)-N-(2,3-dichlorophenyl)-6-(trifluoromethyl)-1H-benzo[d]imidazole-2-carboxamide], the IC50 fell in the range of 101 to 500 nM. Under `CC(C)(O)c1ccc2[nH]c(C(=O)N(CCO)c3cccc(Cl)c3Cl)nc2c1` [Compound 150, N-(2,3-dichlorophenyl)-N-(2-hydroxyethyl)-5-(2-hydroxypropan-2-yl)-1H-benzo[d]imidazole-2-carboxamide] stands at most 100 nM. Under `Cc1cccc(N(CCO)C(=O)c2nc3cc(C(F)(F)F)ccc3[nH]2)c1Cl` [Compound 151, N-(2-chloro-3-methylphenyl)-N-(2-hydroxyethyl)-5-(trifluoromethyl)-1H-benzo[d]imidazole-2-carboxamide] stands at most 100 nM. The result for `Cc1ccc(Cl)c(N(C)C(=O)c2nc3cc(C(F)(F)F)ccc3[nH]2)c1Cl` [Compound 152, N-(2,6-dichloro-3-methylphenyl)-N-methyl-5-(trifluoromethyl)-1H-benzo[d]imidazole-2-carboxamide] reads at most 100 nM. `Cc1csc(-c2ccc3[nH]c(C(=O)N(CCO)c4cccc(Cl)c4Cl)nc3c2)n1` [Compound 153]: the IC50 was 101 to 500 nM.

In the case of `Cc1c[nH]c(-c2ccc3[nH]c(C(=O)N(CCO)c4cccc(Cl)c4Cl)nc3c2)n1` [Compound 154], the IC50 is at least 1000 nM.

As to `Cc1ccnc(N(CC(F)(F)CO)C(=O)c2nc3cc(C(F)(F)F)ccc3[nH]2)c1Cl` [Compound 156, N-(3-chloro-4-methylpyridin-2-yl)-N-(2,2-difluoro-3-hydroxypropyl)-5-(trifluoromethyl)-1H-benzo[d]imidazole-2-carboxamide], the IC50 was in the range of 101 to 500 nM. With `O=C(c1nc2cc(C(F)(F)F)ccc2[nH]1)N(CCO)c1cccc(F)c1Cl` [Compound 157, N-(2-chloro-3-fluorophenyl)-N-(2-hydroxyethyl)-5-(trifluoromethyl)-1H-benzo[d]imidazole-2-carboxamide], the IC50 is at most 100 nM. As for `Cc1c(F)cccc1N(CCO)C(=O)c1nc2cc(C(F)(F)F)ccc2[nH]1` [Compound 158, N-(3-fluoro-2-methylphenyl)-N-(2-hydroxyethyl)-5-(trifluoromethyl)-1H-benzo[d]imidazole-2-carboxamide], the 50% inhibitory concentration (IC50) is at most 100 nM.

In the case of `O=C(c1nc2cc(C(F)(F)F)ccc2[nH]1)N(CCO)c1c(Cl)cccc1Cl` [Compound 159, N-(2,6-dichlorophenyl)-N-(2-hydroxyethyl)-5-(trifluoromethyl)-1H-benzo[d]imidazole-2-carboxamide], the IC50 fell in the range of 101 to 500 nM. Regarding `Cc1ccc2[nH]c(C(=O)N(CCO)c3cccc(Cl)c3Cl)nc2c1Br` [Compound 160], the 50% inhibitory concentration (IC50) is at most 100 nM. As to `O=C(c1nc2cc(-c3cscn3)ccc2[nH]1)N(CCO)c1cccc(Cl)c1Cl` [Compound 161], the IC50 is at most 100 nM. In the case of `O=C(c1nc2cc(C(F)(F)F)c(Cl)cc2[nH]1)N(CCO)c1cccc(Cl)c1Cl` [Compound 163], the IC50 was 101 to 500 nM. Under `Cc1ccc2[nH]c(C(=O)N(CCO)c3cccc(Cl)c3Cl)nc2c1-c1cc[nH]c(=O)c1` [Compound 164] stands 101 to 500 nM; under `O=C1CCCN1CCN(C(=O)c1nc2ccc(C(F)(F)F)cc2[nH]1)c1cccc(Cl)c1Cl` [Compound 165, N-(2,3-dichlorophenyl)-N-(2-(2-oxopyrrolidin-1-yl)ethyl)-6-(trifluoromethyl)-1H-benzo[d]imidazole-2-carboxamide], 501 to 1000 nM; under `[2H]C([2H])([2H])N(C(=O)c1nc2cc(C(F)(F)F)ccc2[nH]1)c1cncc(Cl)c1C` [Compound 166, N-(5-chloro-4-methylpyridin-3-yl)-N-(methyl-d3)-5-(trifluoromethyl)-1H-benzo[d]imidazole-2-carboxamido], at most 100 nM. On to `COC1CN(CCN(C(=O)c2nc3cc(C(F)(F)F)ccc3[nH]2)c2cccc(Cl)c2Cl)C1` [Compound 167, N-(2,3-dichlorophenyl)-N-(2-(3-methoxyazetidin-1-yl)ethyl)-5-(trifluoromethyl)-1H-benzo[d]imidazole-2-carboxamide], for which the half-inhibitory concentration (IC50) was at most 100 nM. Turning to `CC(C)(O)CN(C(=O)c1nc2cc(C(F)(F)F)ccc2[nH]1)c1cccc(Cl)c1Cl` [Compound 168, N-(2,3-dichlorophenyl)-N-(2-hydroxy-2-methylpropyl)-5-(trifluoromethyl)-1H-benzo[d]imidazole-2-carboxamide], the IC50 is at most 100 nM. The result for `CC(O)CN(C(=O)c1nc2cc(C(F)(F)F)ccc2[nH]1)c1cccc(Cl)c1Cl` (stereo not shown) [Compound 170] reads at most 100 nM.

Regarding `O=C(c1nc2cc(CO)ccc2[nH]1)N(CCO)c1cccc(Cl)c1Cl` [Compound 171], the IC50 lay within 101 to 500 nM. The result for `Cc1cccc(N(CCO)C(=O)c2nc3cc(C(F)(F)F)ccc3[nH]2)c1F` [Compound 172, N-(2-fluoro-3-methylphenyl)-N-(2-hydroxyethyl)-5-(trifluoromethyl)-1H-benzo[d]imidazole-2-carboxamide] reads 501 to 1000 nM; that for `O=C(c1nc2cc(C(F)(F)F)ccc2[nH]1)N(CC1(CO)COC1)c1cccc(Cl)c1Cl` [Compound 174, N-(2,3-dichlorophenyl)-N-((3-(hydroxymethyl)oxetan-3-yl)methyl)-5-(trifluoromethyl)-1H-benzo[d]imidazole-2-carboxamido], at most 100 nM. Under `Cc1c(Cl)cncc1N(CCO)C(=O)c1nc2c(Cl)c(Cl)ccc2[nH]1` [Compound 175] stands 501 to 1000 nM.

Turning to `CN(C(=O)c1nc2c(C3CC(O)C3)cccc2[nH]1)C1CCCC1` (stereo not shown) [Compound 176, N-cyclopentyl-4-((1s,3s)-3-hydroxycyclobutyl)-N-methyl-1H-benzo[d]imidazole-2-carboxamide], the IC50 was at least 1000 nM.

As to `O=C(c1nc2cc(C(F)(F)F)ccc2[nH]1)N(CC1CC(O)C1)c1cccc(Cl)c1Cl` (stereo not shown) [Compound 177, N-(2,3-dichlorophenyl)-N-((3-hydroxycyclobutyl)methyl)-5-(trifluoromethyl)-1H-benzo[d]imidazole-2-carboxamide], the IC50 is at most 100 nM. Take `O=C(c1nc2cc(C(F)(F)F)ccc2[nH]1)N(CCOC1COC1)c1cccc(Cl)c1Cl` [Compound 178, N-(2,3-dichlorophenyl)-N-(2-(oxetan-3-yloxy)ethyl)-5-(trifluoromethyl)-1H-benzo[d]imidazole-2-carboxamide]: the IC50 was at most 100 nM.

For `O=C(c1nc2cc(C(F)(F)F)ccc2[nH]1)N(CCN1CC(O)C1)c1cccc(Cl)c1Cl` [Compound 179, N-(2,3-dichlorophenyl)-N-(2-(3-hydroxyazetidin-1-yl)ethyl)-5-(trifluoromethyl)-1H-benzo[d]imidazole-2-carboxamide], the IC50 is at most 100 nM.

For the compound `O=C(c1nc2cc(C(F)(F)F)ccc2[nH]1)N(CC1CS(=O)(=O)C1)c1cccc(Cl)c1Cl` [Compound 180, N-(2,3-dichlorophenyl)-N-((1,1-dioxidothietan-3-yl)methyl)-5-(trifluoromethyl)-1H-benzo[d]imidazole-2-carboxamide], the IC50 is at most 100 nM.

Turning to `CC1(CN(C(=O)c2nc3cc(C(F)(F)F)ccc3[nH]2)c2cccc(Cl)c2Cl)COC1` [Compound 181, N-(2,3-dichlorophenyl)-N-((3-methyloxetan-3-yl)methyl)-5-(trifluoromethyl)-1H-benzo[d]imidazole-2-carboxamide], the IC50 was at most 100 nM.

The values are drawn from US20260265195A1, “SARM1 MODULATORS, PREPARATIONS, AND USES THEREOF” (SIRONAX LTD, priority 2022, published 2026).
